Results reported in PubChem BioAssay AID248 (DTP/NCI, 2004).
Several values for one entry are separate records, joined by “and”; a condition that tells them apart may be missing. Identical values can stand only once. Inconclusive results and toxic doses are left out. Cut-off read from the data, not from the text of the source: active = T/C of 150% or more; inactive = T/C below 125%.

Tested on: L1210 leukemia ip in BDF1 mice, survival T/C
Assay: NCI In Vivo Anticancer Drug Screen. Data for tumor model L1210 Leukemia (intraperitoneal) in B6D2F1 (BDF1) mice
Conditions: endpoint: mean survival time, higher = longer survival
Procedure, shortened: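 Value reflects the ratio of survival in compound-treated mice to survival in vehicle-treated controls, with both groups carrying the same transplanted tumor.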

[1] = dose: 50.0 mg/kg/injection, schedule: Q01DX009 (ip), vehicle: saline with Tween-80
[2] = dose: 100.0 mg/kg/injection, schedule: Q01DX009 (ip), vehicle: saline with Tween-80
[3] = dose: 200.0 mg/kg/injection, schedule: Q01DX009 (ip), vehicle: saline with Tween-80
[4] = dose: 100.0 mg/kg/injection, schedule: Q04DX003 (ip), vehicle: saline with Tween-80
[5] = dose: 200.0 mg/kg/injection, schedule: Q04DX003 (ip), vehicle: saline with Tween-80
[6] = dose: 400.0 mg/kg/injection, schedule: Q04DX003 (ip), vehicle: saline with Tween-80
[7] = dose: 100.0 mg/kg/injection, schedule: Q01DX009 (ip), vehicle: saline
[8] = dose: 200.0 mg/kg/injection, schedule: Q01DX009 (ip), vehicle: saline

Measured: T/C

O=C1c2cc(-c3ccccc3)c(-c3ccccc3)cc2C(c2ccccc2)(c2ccccc2)C1(Cl)Cl
inactive: [1] 100 % of control | [2] 100 % of control | [3] 95 % of control

CCOC(=O)CS(C)(=O)=O
inactive: dose: 100.0 mg/kg/injection, schedule: Q01DX001 (ip), vehicle: saline 98 % of control | dose: 200.0 mg/kg/injection, schedule: Q01DX001 (ip), vehicle: saline 93 % of control | dose: 400.0 mg/kg/injection, schedule: Q01DX001 (ip), vehicle: saline 94 % of control

NC(=O)c1ccc(O)cc1
inactive: dose: 100.0 mg/kg/injection, schedule: Q01DX001 (ip), vehicle: carboxymethylcellulose (CMC) 92 % of control | dose: 200.0 mg/kg/injection, schedule: Q01DX001 (ip), vehicle: carboxymethylcellulose (CMC) 92 % of control | dose: 400.0 mg/kg/injection, schedule: Q01DX001 (ip), vehicle: carboxymethylcellulose (CMC) 89 % of control

Cc1cccc(C)c1N(COC(C)C)C(=O)CCl
inactive: [2] 94 % of control | [3] 95 % of control

NS(=O)(=O)O.[Ni]
inactive: dose: 16.0 mg/kg/injection, schedule: Q04DX003 (ip), vehicle: saline 108 % of control | dose: 25.0 mg/kg/injection, schedule: Q04DX003 (ip), vehicle: saline 92 % of control | dose: 35.0 mg/kg/injection, schedule: Q04DX003 (ip), vehicle: saline 93 % of control | dose: 50.0 mg/kg/injection, schedule: Q04DX003 (ip), vehicle: saline 103 % of control

O=C(C[n+]1ccc2ccccc2c1)c1cccs1
inactive: dose: 25.0 mg/kg/injection, schedule: Q04DX002 (ip), vehicle: Klucel (hydroxypropylcellulose) (HPC) 90 % of control and 91 % of control | dose: 50.0 mg/kg/injection, schedule: Q04DX002 (ip), vehicle: Klucel (hydroxypropylcellulose) (HPC) 95 % of control and 90 % of control | dose: 100.0 mg/kg/injection, schedule: Q04DX002 (ip), vehicle: Klucel (hydroxypropylcellulose) (HPC) 98 % of control

CC(C)OCCS(=O)(=O)Oc1ncc(Cl)cc1Cl
inactive: dose: 12.5 mg/kg/injection, schedule: Q01DX009 (ip), vehicle: saline with Tween-80 113 % of control | dose: 25.0 mg/kg/injection, schedule: Q01DX009 (ip), vehicle: saline with Tween-80 94 % of control | [1] 96 % of control | [4] 94 % of control | [5] 96 % of control | dose: 400.0 mg/kg/injection, schedule: Q01DX009 (ip), vehicle: saline with Tween-80 90 % of control | [6] 94 % of control

CSc1nc(Cl)nc(C(Cl)Cl)c1Cl
inactive: dose: 12.5 mg/kg/injection, schedule: Q01DX009 (ip), vehicle: other 93 % of control | dose: 25.0 mg/kg/injection, schedule: Q01DX009 (ip), vehicle: other 107 % of control | dose: 50.0 mg/kg/injection, schedule: Q01DX009 (ip), vehicle: other 89 % of control and 90 % of control

CCOC(=O)c1ccc(CCCCl)cc1
inactive: dose: 100.0 mg/kg/injection, schedule: Q01DX001 (ip), vehicle: Klucel (hydroxypropylcellulose) (HPC) 98 % of control | dose: 200.0 mg/kg/injection, schedule: Q01DX001 (ip), vehicle: Klucel (hydroxypropylcellulose) (HPC) 88 % of control | dose: 400.0 mg/kg/injection, schedule: Q01DX001 (ip), vehicle: Klucel (hydroxypropylcellulose) (HPC) 91 % of control

Cc1cc([N+](=O)[O-])ccc1P(=O)(O)O
inactive: [4] 100 % of control | [5] 108 % of control

O=C(CI)OCC#CCOC(=O)CI
inactive: dose: 12.5 mg/kg/injection, schedule: Q01DX001 (ip), vehicle: carboxymethylcellulose (CMC) 98 % of control | dose: 12.5 mg/kg/injection, schedule: Q01DX009 (ip), vehicle: carboxymethylcellulose (CMC) 90 % of control and 92 % of control | dose: 12.5 mg/kg/injection, schedule: Q04DX002 (ip), vehicle: carboxymethylcellulose (CMC) 104 % of control and 110 % of control | dose: 12.5 mg/kg/injection, schedule: Q04DX003 (ip), vehicle: carboxymethylcellulose (CMC) 95 % of control | dose: 25.0 mg/kg/injection, schedule: Q01DX001 (ip), vehicle: carboxymethylcellulose (CMC) 103 % of control | dose: 25.0 mg/kg/injection, schedule: Q01DX009 (ip), vehicle: carboxymethylcellulose (CMC) 86 % of control | dose: 25.0 mg/kg/injection, schedule: Q04DX002 (ip), vehicle: carboxymethylcellulose (CMC) 98 % of control | dose: 25.0 mg/kg/injection, schedule: Q04DX003 (ip), vehicle: carboxymethylcellulose (CMC) 103 % of control | dose: 50.0 mg/kg/injection, schedule: Q01DX001 (ip), vehicle: carboxymethylcellulose (CMC) 92 % of control | dose: 50.0 mg/kg/injection, schedule: Q04DX002 (ip), vehicle: carboxymethylcellulose (CMC) 97 % of control and 103 % of control | dose: 50.0 mg/kg/injection, schedule: Q04DX003 (ip), vehicle: carboxymethylcellulose (CMC) 94 % of control

C[C@H]1CC2=CC(=O)CC[C@]2(C)[C@H]2CC[C@@]3(C)[C@@H](CC[C@]3(C)O)[C@H]12
inactive: dose: 12.5 mg/kg/injection, schedule: Q01DX009 (sc), vehicle: saline 102 % of control | dose: 25.0 mg/kg/injection, schedule: Q01DX009 (ip), vehicle: saline 97 % of control | dose: 25.0 mg/kg/injection, schedule: Q01DX009 (sc), vehicle: saline 107 % of control | dose: 50.0 mg/kg/injection, schedule: Q01DX001 (sc), vehicle: steriod suspending solution 101 % of control | dose: 50.0 mg/kg/injection, schedule: Q01DX009 (ip), vehicle: saline 100 % of control | dose: 50.0 mg/kg/injection, schedule: Q01DX009 (sc), vehicle: saline 103 % of control | dose: 100.0 mg/kg/injection, schedule: Q01DX001 (sc), vehicle: steriod suspending solution 101 % of control | [7] 94 % of control | dose: 100.0 mg/kg/injection, schedule: Q01DX009 (sc), vehicle: saline 100 % of control | dose: 200.0 mg/kg/injection, schedule: Q01DX001 (sc), vehicle: steriod suspending solution 107 % of control | dose: 200.0 mg/kg/injection, schedule: Q01DX009 (ip), vehicle: acetone 96 % of control | [8] 96 % of control | dose: 200.0 mg/kg/injection, schedule: Q01DX009 (sc), vehicle: acetone 101 % of control | dose: 400.0 mg/kg/injection, schedule: Q01DX001 (sc), vehicle: steriod suspending solution 101 % of control

Cc1cc(C)c(I)c(C(=O)O)c1
inactive: [4] 95 % of control | [5] 104 % of control | [6] 104 % of control

CC(Br)C(=O)c1cccc2ccccc12 (stereo not given)
inactive: dose: 25.0 mg/kg/injection, schedule: Q04DX003 (ip), vehicle: Klucel (hydroxypropylcellulose) (HPC) 90 % of control | dose: 50.0 mg/kg/injection, schedule: Q04DX003 (ip), vehicle: Klucel (hydroxypropylcellulose) (HPC) 90 % of control | dose: 100.0 mg/kg/injection, schedule: Q04DX003 (ip), vehicle: Klucel (hydroxypropylcellulose) (HPC) 97 % of control and 98 % of control

COc1cc(CCl)c(OC)cc1Cl
inactive: [2] 100 % of control | [4] 99 % of control | [3] 106 % of control | [5] 91 % of control | [6] 99 % of control

c1ccc(CC(Cc2ccccc2)=[N+]2CCCC2)cc1
inactive: [7] 91 % of control | dose: 100.0 mg/kg/injection, schedule: Q04DX003 (ip), vehicle: saline 104 % of control | [8] 92 % of control | dose: 200.0 mg/kg/injection, schedule: Q04DX003 (ip), vehicle: saline 98 % of control | dose: 400.0 mg/kg/injection, schedule: Q01DX009 (ip), vehicle: saline 101 % of control | dose: 400.0 mg/kg/injection, schedule: Q04DX003 (ip), vehicle: saline 105 % of control

O=c1[nH]cnc2c1ncn2Cc1ccc([N+](=O)[O-])cc1
inactive: dose: 100.0 mg/kg/injection, schedule: Q01DX001 (ip), vehicle: other 96 % of control | [4] 102 % of control | dose: 200.0 mg/kg/injection, schedule: Q01DX001 (ip), vehicle: other 98 % of control | [5] 96 % of control | [6] 94 % of control
